The text below walks through data of patent US20250115598A1 (Anaxis Pharma Pty Ltd, priority 2021, published 2025).

Where two headings read alike, the source gives them in different places. A value given as a limit tells only on which side of the number the result lay.

In experiment [1] the test system is Immortalised Mouse Dermal Fibroblasts (MDFs). As to the kind of experiment: Cellular assay: inhibition of TSI induced necroptosis, CellTitre-Glo viability. Particulars: Mus musculus, Fibroblast, MDF, 3 hours TSI cocktail, read-out: Inhibition of TSI-induced necroptosis (IC50 cell-based assay) in MDF. The protocol:
Cellular Assay: Screening Compounds for Inhibition of TSI Induced Necroptosis in, 384 Well Plate Format.
• Cell Line ID: Immortalised Mouse Dermal Fibroblasts (MDFs). • Cell Concentration (cells/well): Final cell density is 2200 cells per well. • Cell growth medium: DMEM medium+7.4% Fetal Bovine Serum (FBS). Cells are cultured in Corning 150 cm^2 tissue culture flasks with vented caps at 37° C./10% CO2. • Incubation: Plates were incubated for 30 minutes following addition of compounds and then 3 hours incubation with death stimuli (TSI cocktail) at 37° C./10% CO2 in a humidified incubator. • Compound concentration: 36 μM starting concentration, 1:3 dilution, 10 point • DMSO final concentration (% v/v): 0.3%. Compounds in TSI Cocktail (T: TNF; S: Smac Mimetic; I: IDN-6556) and their Final Concentrations: • rhTNF (100 ng/ml) • Compound a (500 nM)—Smac Mimetic, Tetralogic and SYNthesis Med Chem • IDN-6556 (10 μM)—Selleckchem (S7775)
The cellular assay was carried out according to the following steps: • 1. Each well was prepared by sequential addition of: • a. 40 μL of cell suspension (5.5×10^4 cells/mL) was added to each well to provide a final cell concentration of 2,200 cells per well. • b. After 24 hours, DMSO (control; columns 1-2 and 23-24) or compound in DMSO—addition was performed using acoustic transfer of nL volumes of stock compound to give final test concentrations of 36, 12, 4, 1.3, 0.44, 0.148, 0.049, 0.016, 0.005 and 0.002 μM. All wells were backfilled with DMSO to a final total volume in the well of 100 nL. • c. Following compound/DMSO addition in step (b), Plates were incubated for 30 minutes at 37° C./10% CO2 in a humidified incubator and then 10 μL of 5×TSI cocktail (except to positive controls; columns 2 and 24) was added to each well. • 2. After 3 hours, plate was removed from the 37° C. incubator and equilibrated to room temperature for 15 minutes. • 3. 15 μL of room temperatured CellTitre-Glo2™ (Promega™) was added to each well. • 4. Shook plates for 2 minutes (˜600 rpm) and incubated at room temperature for 15 minutes to allow signal to stabilise. • 5. Read luminescence readout on a plate reader.
Percent viability was calculated for each compound according to equation (2):
[formula] • Wherein RawData is the readout of any cell containing a compound of the invention.
TA is the total activity provided by the luminescence readout from DMSO only wells (columns 2 and 24)=100% viability.
NSA is the non-specific activity provided by DMSO+TSI wells (columns 1 and 23)=0% viability • Curve fitting: 10-point titration curves are fitted with the 4-parameter logistic nonlinear regression model and the IC50 reported is the inflection point of the curve • Analysis: Data was loaded into Dotmatics™ and visualised using the Tibco@ • Spotfire™ software. 10 point titration curves were fitted with the 4 parameter logistic nonlinear regression model and the IC50 reported reflect the inflection point of the curve for curve fitting.
Assay involving the TSI cocktail (T: TNF; S: Smac mimetic; I: IDN-6556): TSI treatment ensures that cells specifically undergo necroptotic cell death. TNF activates the TNF receptor, Smac mimetic directs the signal away from proinflammatory signaling and toward the RIPK1/RIPK3-mediated cell death pathways, and IDN-6556 (Caspase inhibitor) ensures that the apoptotic response is blocked leaving only the programmed necrosis response. The compounds' activity (solution in DMSO) tested in this TSI-induced assay was evaluated by determining the number of viable cells in culture by measuring the amount of ATP present as measured by CelltiterGlo.

Another experiment addresses human MLKL (full length) (Homo sapiens (Human), UniProt Q8NB16). As to the kind of experiment: KINOMEscan binding assay, human MLKL (full length). Particulars: hMLKL, Table 25; read-out: MLKL (KD). The method, boiled down: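 Active-site competition binding: DNA-tagged kinase (T7 phage fusion from BL21-derived E. coli lysate, or HEK-293-expressed) captured on immobilized-ligand beads, with bound kinase in the eluate quantified by qPCR. Compounds ran as 11-point 3-fold dilutions, 1% DMSO, top 30,000 nM for most. Kd came from a Hill fit (slope −1).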

Sequence of human MLKL (full length) (Q8NB16 whole entry, the tested form may be a part): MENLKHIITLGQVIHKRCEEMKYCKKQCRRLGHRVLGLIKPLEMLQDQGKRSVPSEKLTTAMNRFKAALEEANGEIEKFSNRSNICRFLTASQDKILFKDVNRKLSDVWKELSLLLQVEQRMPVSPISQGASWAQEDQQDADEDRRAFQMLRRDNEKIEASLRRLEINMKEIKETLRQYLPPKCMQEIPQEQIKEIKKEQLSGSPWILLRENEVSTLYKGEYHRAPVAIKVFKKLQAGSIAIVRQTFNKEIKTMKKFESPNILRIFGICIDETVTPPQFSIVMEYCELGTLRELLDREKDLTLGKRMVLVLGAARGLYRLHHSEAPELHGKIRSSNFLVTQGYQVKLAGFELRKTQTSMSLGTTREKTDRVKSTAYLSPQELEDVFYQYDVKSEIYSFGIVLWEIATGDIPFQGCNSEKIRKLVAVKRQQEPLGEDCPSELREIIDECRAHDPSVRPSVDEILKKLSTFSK

Regarding `C[C@H](Oc1cc(-c2nn(C)c3c(-c4cnn(C5CCNC(C(F)(F)F)C5)c4)cnc(N)c23)ccc1NS(=O)(=O)C(F)F)c1ccc(F)cc1` (stereo partly drawn) [Compound 149, N-(4-(4-amino-1-methyl-7-(1-(2-(trifluorometh-yl)piperidin-4-yl)-1H-pyrazol-4-yl)-1H-pyrazolo[4,3-c]pyridin-3-yl)-2-((S)-1-(4-fluoro-phenyl)ethoxy)phenyl)-1,1-difluoro-methanesulfonamide], the IC50 in experiment [1] (Table 24) is < 1000 nM.

With `[2H]C([2H])([2H])N1CCC(n2cc(-c3cnc(N)c4c(-c5ccc(NS(=O)(=O)C(F)F)c(O[C@@H](C)c6ccc(F)cc6)c5)nn(C)c34)cn2)CC1(C)C` (stereo partly drawn) [Compound 152, N-(4-(4-amino-7-(1-(2,2-dimethyl-1-(methyl-d3)piperidin-4-yl)-1H-pyrazol-4-yl)-1-methyl-1H-pyrazolo[4,3-c]pyridin-3-yl)-2-((S)-1-(4-fluorophenyl)ethoxy)phenyl)-1,1-difluoromethanesulfonamide], the IC50 in experiment [1] (Table 24) was < 1000 nM.

As for `Cc1ncsc1-c1ccc(CNC(=O)[C@@H]2C[C@@H](O)CN2C(=O)[C@@H](NC(=O)CCCCC#Cc2cnc(N)c3c(-c4ccc(NS(=O)(=O)C(F)F)c(O[C@@H](C)c5ccc(F)cc5)c4)nn(C)c23)C(C)(C)C)cc1` [Compound 1026, (2S,4R)-1-[(2S)-2-(7-{4-amino-3-[4-(difluoromethanesulfonamido)-3-[(1S)-1-(4-fluorophenyl)ethoxy]phenyl]-1-methyl-1H-pyrazolo[4,3-c]pyridin-7-yl}hept-6-ynamido)-3,3-dimethylbutanoyl]-4-hydroxy-N-{[4-(4-methyl-1,3-thiazol-5-yl)phenyl]methyl}pyrrolidine-2-carboxamide], in experiment [1] (Table 27), the IC50 was in the range of 1000 to 10000 nM. The Kd at human MLKL (full length) was 10 to 1000 nM.

As for `Cc1ncsc1-c1ccc(CNC(=O)[C@@H]2C[C@@H](O)CN2C(=O)[C@@H](NC(=O)C2(F)CC2)C(C)(C)C)c(OCCOCCOCCOCCn2cc(-c3cnc(N)c4c(-c5ccc(NS(=O)(=O)C(F)F)c(O[C@@H](C)c6ccc(F)cc6)c5)nn(C)c34)cn2)c1` [Compound 1061, (2S,4R)-N-({2-[2-(2-{2-[2-(4-{4-amino-3-[4-(difluoromethanesulfonamido)-3-[(1S)-1-(4-fluorophenyl)ethoxy]phenyl]-1-methyl-1H-pyrazolo[4,3-c]pyridin-7-yl}-1H-pyrazol-1-yl)ethoxy]ethoxy}ethoxy)ethoxy]-4-(4-methyl-1,3-thiazol-5-yl)phenyl}methyl)-1-[(2S)-2-[(1-fluorocyclopropyl)formamido]-3,3-dimethylbutanoyl]-4-hydroxypyrrolidine-2-carboxamide], in experiment [1] (Table 27), the IC50 lay in the range of 1000 to 10000 nM. The Kd on human MLKL (full length) is < 10 nM.

For the molecule `C[C@H](Oc1cc(-c2nn(C)c3c(-c4cnn(CCCCCCC(=O)Nc5cccc6c5CN(C5CCC(=O)NC5=O)C6=O)c4)cnc(N)c23)ccc1NS(=O)(=O)C(F)F)c1ccc(F)cc1` (stereo partly drawn) [Compound 1062, 7-(4-{4-amino-3-[4-(difluoromethanesulfonamido)-3-[(1S)-1-(4-fluorophenyl)ethoxy]phenyl]-1-methyl-1H-pyrazolo[4,3-c]pyridin-7-yl}-1H-pyrazol-1-yl)-N-[2-(2,6-dioxopiperidin-3-yl)-1-oxo-2,3-dihydro-1H-isoindol-4-yl]heptanamide], the IC50 in experiment [1] (Table 27) is 1000 to 10000 nM. Also, the Kd at human MLKL (full length) is < 10 nM.

Regarding `Cc1ncsc1-c1ccc(CNC(=O)[C@@H]2C[C@@H](O)CN2C(=O)[C@@H](NC(=O)CCCCOC(=O)c2ccc(-c3cnc(N)c4c(-c5ccc(NS(=O)(=O)C(F)F)c(O[C@@H](C)c6ccc(F)cc6)c5)nn(C)c34)cc2)C(C)(C)C)cc1` [Compound 1064, 4-{[(2S)-1-[(2S,4R)-4-hydroxy-2-({[4-(4-methyl-1,3-thiazol-5-yl)phenyl]methyl}carbamoyl)pyrrolidin-1-yl]-3,3-dimethyl-1-oxobutan-2-yl]carbamoyl}butyl 4-{4-amino-3-[4-(difluoromethanesulfonamido)-3-[(1 S)-1-(4-fluorophenyl)ethoxy]phenyl]-1-methyl-1H-pyrazolo[4,3-c]pyridin-7-yl}benzoate], the IC50 in experiment [1] (Table 27) was in the range of 1000 to 10000 nM. Besides, the Kd at human MLKL (full length) lay within 10 to 1000 nM.

As to `Cc1ncsc1-c1ccc(CNC(=O)[C@@H]2C[C@@H](O)CN2C(=O)[C@@H](NC(=O)CCCCCn2cc(-c3cnc(N)c4c(-c5ccc(NS(=O)(=O)C(F)F)c(O[C@@H](C)c6ccc(F)cc6)c5)nn(C)c34)cn2)C(C)(C)C)cc1` [Compound 1066, (2S,4R)-1-[(2S)-2-[6-(4-{4-amino-3-[4-(difluoromethanesulfonamido)-3-[(1S)-1-(4-fluorophenyl)ethoxy]phenyl]-1-methyl-1H-pyrazolo[4,3-c]pyridin-7-yl}-1H-pyrazol-1-yl)hexanamido]-3,3-dimethylbutanoyl]-4-hydroxy-N-{[4-(4-methyl-1,3-thiazol-5-yl)phenyl]methyl}pyrrolidine-2-carboxamide], the IC50 in experiment [1] (Table 27) lay in the range of 1000 to 10000 nM. Moreover, on human MLKL (full length), the Kd was < 10 nM.

As to `Cc1ncsc1-c1ccc(CNC(=O)[C@@H]2C[C@@H](O)CN2C(=O)[C@@H](NC(=O)CCCCCCCn2cc(-c3cnc(N)c4c(-c5ccc(NS(=O)(=O)C(F)F)c(O[C@@H](C)c6ccc(F)cc6)c5)nn(C)c34)cn2)C(C)(C)C)cc1` [Compound 1067, (2S,4R)-1-[(2S)-2-[8-(4-{4-amino-3-[4-(difluoromethanesulfonamido)-3-[(1S)-1-(4-fluorophenyl)ethoxy]phenyl]-1-methyl-1H-pyrazolo[4,3-c]pyridin-7-yl}-1H-pyrazol-1-yl)octanamido]-3,3-dimethylbutanoyl]-4-hydroxy-N-{[4-(4-methyl-1,3-thiazol-5-yl)phenyl]methyl}pyrrolidine-2-carboxamide], in experiment [1] (Table 27), the IC50 is < 1000 nM. In addition, on human MLKL (full length), the Kd is < 10 nM.

Consider `C[C@H](Oc1cc(-c2nn(C)c3c(-c4cnn(C5CCN(C(=O)c6cccc(C(=O)NC7CCC(=O)NC7=O)c6)CC5)c4)cnc(N)c23)ccc1NS(=O)(=O)C(F)F)c1ccc(F)cc1` (stereo partly drawn) [Compound 1084, 3-[4-(4-{4-amino-3-[4-(difluoromethanesulfonamido)-3-[(1S)-1-(4-fluorophenyl)ethoxy]phenyl]-1-methyl-1H-pyrazolo [4,3-c]pyridin-7-yl}-1H-pyrazol-1-yl)piperidine-1-carbonyl]-N-(2,6-dioxopiperidin-3-yl)benzamide], for which, in experiment [1] (Table 27), the IC50 fell in the range of 1000 to 10000 nM. In addition, at human MLKL (full length), the Kd was < 10 nM.

For `C[C@H](Oc1cc(-c2nn(C)c3c(-c4cnn(C5CCN(C(=O)c6ccc(C(=O)NC7CCC(=O)NC7=O)cc6)CC5)c4)cnc(N)c23)ccc1NS(=O)(=O)C(F)F)c1ccc(F)cc1` (stereo partly drawn) [Compound 1086, 4-[4-(4-{4-amino-3-[4-(difluoromethanesulfonamido)-3-[(1S)-1-(4-fluorophenyl)ethoxy]phenyl]-1-methyl-1H-pyrazolo[4,3-c]pyridin-7-yl}-1H-pyrazol-1-yl)piperidine-1-carbonyl]-N-(2,6-dioxopiperidin-3-yl)benzamide], the IC50 in experiment [1] (Table 27) fell in the range of 1000 to 10000 nM. Besides, at human MLKL (full length), the Kd was < 10 nM.

A word on the IC50: it is the concentration needed to halve the response being measured. What is called Kd is the constant that tells how readily two partners part at equilibrium.
